Converted amounts (≈) assume the structure as drawn. Where two headings read alike, the source gives them in different places. Blank lines part the entries; values can stand above or below the molecule they belong to.
Experiments:
[1] = cited from earlier work
E. faecalis = test: Minimum inhibitory concentration, broth microdilution (NCCLS M7-A); format: cell-based; details: Enterococcus faecalis, read-out: Minimum Inhibitory Concentration
Experimental: (§1) The minimum inhibitory concentration of the drugs against the bacterial strains S. pyrogenes, E. faecalis, S. aureus, E. coli and P. aeruginosa were determined.

P. aeruginosa = test: as above; format: cell-based; details: Pseudomonas aeruginosa, read-out: Minimum Inhibitory Concentration
Experimental: as §1

S. pyrogenes = test: as above; format: cell-based; details: read-out: Minimum Inhibitory Concentration
Experimental: as §1

E. coli = test: as above; format: cell-based; details: Escherichia coli, inoculum 5×10^5 CFU/ml
Experimental: (§2) As described above, glycinyl-ciprofloxacin was prepared as set forth in Example 2A-2B and tested for antimicrobial activity in vitro, as described in Example 2C. The minimum inhibitory concentration of the drugs against the bacterial strains S. pyrogenes, E. faecalis, S. aureus, E. coli and P. aeruginosa were determined.
(§3) Minimum inhibitory concentrations were determined by a broth microdilution technique following the National Committee for Clinical Laboratory Standards guidelines (NCCLS document M7-A, National Committee for Laboratory Standards, Villanova, Pa., 1994 Approved Standard for "Methods for dilution antimicrobial susceptibility tests for bacteria that grow aerobically") with a starting inoculum of 5×10^5 CFU/ml.

S. aureus = test: as above; format: cell-based; details: Staphylococcus aureus, inoculum 5×10^5 CFU/ml
Experimental: as §2, §3

[2] = Remote drug loading into PEG-coated liposomes; format: physicochemical; details: for % Drug Loading / Drug Conc. at Lipid Conc. of 36 mg/ml / Internal Liposome Drug Conc.: Drug:Lipid Ratio (mg/ml/mM) 2.5:50 (lysine-cipro), 5:50 (glycine-cipro)
Experimental: The chloroform was removed using a flash evaporator under reduced pressure until dryness. To the thin lipid film on the surface of the flask was added 15 ml of a solution of 250 mM ammonium sulfate, pH 5.5 and the lipids were dispersed in the solution by vigorous shaking for approximately 30 minutes at 60° C. The multilamellar vesicles obtained were extruded 6 times through a 0.4 μm pore-size Nucleopore polycarbonate filter, 6 times through a 0.1 μm polycarbonate filter and 3 times through a 0.05 μm polycarbonate filter using a stainless steel extrusion cell under a pressure of 200-400 psig. The extrusion process was carried out at 60° C. […] The liposomes were then dialyzed overnight against 4 liters 10% sucrose to remove external ammonium sulfate at 4° C.
The mixtures were incubated at 60° C. for 30 minutes. After incubation, the mixtures were immediately cooled in an ice bath. Aliquot samples were taken and the percent of drug loading was determined by using a Sephadex G-50 column (1.0×19 cm).

[3] = test system: S. pyrogenes, E. faecalis, S. aureus, E. coli and P. aeruginosa; test: Antimicrobial activity of conjugate versus ciprofloxacin (MIC, summary in words); format: cell-based; details: compared with ciprofloxacin, MICs of Table 1
Experimental: as §1

[4] = amino group (NH3) of amino acid, Lehninger
[5] = amino acid used to modify ciprofloxacin

Molecule: C[C@H](N)C(=O)O [alanine]
pKa [1, 4]: 9.7

Molecule: N=C(N)NCCC[C@H](N)C(=O)O [arginine]
pKa [1, 4]: 9.04

Molecule: NCC(=O)N1CCN(c2cc3c(cc2F)c(=O)c(C(=O)O)cn3C2CC2)CC1 [glycinyl-ciprofloxacin]
MIC (E. faecalis; E. faecalis, inoculum 5×10^5 CFU/ml): 32 µg/mL (≈ 82.4 µM)
MIC (P. aeruginosa; P. aeruginosa, inoculum 5×10^5 CFU/ml): > 512 µg/mL
MIC (S. pyrogenes; S. pyrogenes, inoculum 5×10^5 CFU/ml): 4 µg/mL (≈ 10.3 µM)
MIC (E. coli): 8 µg/mL (≈ 20.6 µM)
MIC (S. aureus): 32 µg/mL (≈ 82.4 µM)
% Drug Loading [2]: 75%
Drug Conc. at Lipid Conc. of 36 mg/ml [2]: 5
Internal Liposome Drug Conc. [2]: 37.5 mg/mL
potency relative to ciprofloxacin [3]: some loss of potency

Molecule: NCCCC[C@H](N)C(=O)O [lysine]
pKa [1, 4]: 8.95

Molecule: α-aminocapric acid
pKa [1, 5]: 9.6

% Drug Loading [2]: 73%
Drug Conc. at Lipid Conc. of 36 mg/ml [2]: 1.825
Internal Liposome Drug Conc. [2]: 13.1 mg/mL
Molecule: NCCCC[C@H](N)C(=O)N1CCN(c2cc3c(cc2F)c(=O)c(C(=O)O)cn3C2CC2)CC1 [lysinyl-ciprofloxacin]

Molecule: NCC(=O)O [glycine]
pKa [1, 4]: 9.6

Molecule: ε-aminocapric acid
pKa [1, 5]: 10.5

Molecule: O=C(O)c1cn(C2CC2)c2cc(N3CCNCC3)c(F)cc2c1=O [ciprofloxacin, 1-cyclopropyl-6-fluoro-1,4-dihydro-4-oxo-7-(1-piperazinyl)-3-quinoline carboxylic acid]
MIC (E. faecalis): 1 µg/mL (≈ 3.02 µM)
MIC (P. aeruginosa): < 0.5 µg/mL
MIC (S. pyrogenes): < 0.5 µg/mL
MIC (S. aureus): 1 µg/mL (≈ 3.02 µM)
percent of drug loading ([2]; lipid/drug ratio 2): 49%
percent of drug loading ([2]; lipid/drug ratio 4): 75%
percent of drug loading ([2]; lipid/drug ratio 8): 90%
ciprofloxacin loading ([2]; lipid/drug ratio 8, as stated in leakage test): 75%
percent of drug loading ([2]; lipid/drug ratio 16): 91%
